Patent US20260374769A1, “Crystalline Forms Of An Imidazopyridine Derivative” (Arisan Therapeutics Inc., priority 2023, published 2026)
pIC50: −log10 of the molar value. ≈ marks a conversion by molar mass, not a printed value.

Legend:
human CB1R = target: T1, human CB1R (Homo sapiens, UniProt P21554); assay: CB1R Human Cannabinoid GPCR Cell Based Antagonist cAMP Assay (HTRF, CHO-K1 cells, CP55940 EC80); settings: antagonist mode, CP55940 EC80, 20 uM forskolin, read-out: IC50 functional activity of CB1R
T1 construct: expressed in transfected cells; host or cells: CHO-K1
T1 sequence (P21554 whole entry): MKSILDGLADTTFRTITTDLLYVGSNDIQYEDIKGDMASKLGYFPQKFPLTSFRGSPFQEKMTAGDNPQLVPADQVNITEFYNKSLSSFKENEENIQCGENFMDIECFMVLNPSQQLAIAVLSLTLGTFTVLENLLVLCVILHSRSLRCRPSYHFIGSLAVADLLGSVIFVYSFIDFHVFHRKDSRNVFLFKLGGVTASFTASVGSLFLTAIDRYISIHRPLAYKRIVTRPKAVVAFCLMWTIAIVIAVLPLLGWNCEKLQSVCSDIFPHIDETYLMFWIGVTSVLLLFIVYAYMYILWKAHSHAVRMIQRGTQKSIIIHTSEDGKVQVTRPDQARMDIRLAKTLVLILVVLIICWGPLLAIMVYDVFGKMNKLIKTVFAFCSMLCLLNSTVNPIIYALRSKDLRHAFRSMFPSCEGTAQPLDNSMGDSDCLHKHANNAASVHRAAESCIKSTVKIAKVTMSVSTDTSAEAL
Protocol: CB1R Human Cannabinoid GPCR Cell Based Antagonist cAMP Assay
Evaluation of the potency (IC50) of Compound 1 for the human CB1R in stably transfected CHO-K1 cells was determined in a cAMP cell based assay using HTRF detection method. Cells were seeded in a total volume of 20 μL into white walled, 384-well microplates and incubated at 37 °C overnight prior to testing. Prior to testing cell plating media was exchanged with 10 μL of Assay buffer (HBSS+10 mM HEPES). Briefly, intermediate dilution of sample stocks was performed in assay buffer to generate a sample at 4× the final testing concentration. 5 μL of 4× sample was added to cells and incubated at 37 °C for 30 minutes. 5 μL of CP55940 at 4× the final EC80 concentration in 4× forskolin reagent (at 80 uM) was added and cells incubated for 37 °C for 30 minutes. The final concentration of forskolin in the assay was 20 uM. Final assay vehicle concentration was 1%. The results are expressed as a percent inhibition of CP55940 in antagonist mode.

obese C57BL/6J DIO mice = assay: Mouse DIO Obesity Study (four weeks, oral once a day); assay type: in vivo; settings: 4 weeks
Protocol: To determine if Compound 1 might have anti-obesity activity through CB1R antagonism a four week in vivo study in obese C57BL/6J DIO mice was initiated to investigate weight gain, food intake and fasting blood glucose levels (see Table 62 for experimental design). A GMP lot of Compound 1 at different doses was evaluated and compared to DIO mice dosed with vehicle alone. The compound was formulated as a homogenous suspension with Vitamin-E-TPGS, PEG400, Glycerol, Methylcellulose, 10 mM Sodium Citrate buffer pH6 and water. Animals were orally gavaged once-a-day with either test article or vehicle for 4 weeks.

rats = assay: 28-day GLP rat toxicity study; assay type: in vivo
Excerpt: The same suspension formulation used in the mouse obesity model was used for the rat GLP toxicity study.

[1] = Hygroscopicity and sorption by DVS; assay type: physicochemical
Protocol: The hygroscopicity and the sorption properties of polymorphic Form A of Compound 1 were assessed using DVS.

[2] = Approximate solubility at room temperature in various solvents; assay type: physicochemical
[3] = Solubility in water and biorelevant media; assay type: physicochemical; settings: room temperature
[4] = Water activity experiments (IPA/H2O); assay type: physicochemical
[5] = Slurry at room temperature (solid form after three days); assay type: physicochemical
Protocol: Slurry experiments were conducted at room temperature in various solvent systems. […] After the suspension was stirred magnetically for three days at room temperature, the remaining solids were isolated for XRPD analysis (Table 14).

[6] = Slurry at 50 °C (solid form after two days); assay type: physicochemical
Protocol: Slurry experiments were conducted at 50 °C in various solvent systems. […] After the suspension was stirred magnetically for two days at 50 °C, the remaining solids were isolated for XRPD analysis (Table 15).

[7] = Solid vapor diffusion (solid form after seven days at RT); assay type: physicochemical
Protocol: Solid vapor diffusion experiments were conducted using various solvents. […] The 20-mL vial was then sealed with a cap and kept at RT for seven days allowing solvent vapor to interact with sample. The remaining solids were isolated for XRPD analysis (Table 16).

[8] = Excipient compatibility study (4 weeks at 50 °C/75% RH); assay type: physicochemical
Protocol: The mixtures were placed in open containers and stored at 50 °C and 75% Relative Humidity (RH) for 4 weeks.

CB1R = settings: cited from earlier work

Cc1cc2ncc(-c3ccc(OC(C)(C)C)cc3)n2cc1-c1ccc(OC(C)C)cc1 [Compound 1, 3-(4-(tert-butoxy)phenyl)-6-(4-isopropoxyphenyl)-7-methylimidazo[1,2-a]pyridine]
pIC50 (human CB1R): 5.42 | food intake vs vehicle (obese C57BL/6J DIO mice; 30 mg/kg/day): significantly lower | body weight vs vehicle (obese C57BL/6J DIO mice; 10 and 30 mg/kg/day): significant decreases in body weight | fasting blood glucose vs vehicle (obese C57BL/6J DIO mice; oral once-a-day, FIG. 16): no significant effect on fasting blood glucose | percent weight gain vs vehicle (obese C57BL/6J DIO mice; oral once-a-day, group 4 and 5, FIG. 15): significant dose-dependent drop in percent weight gain | food intake vs vehicle (obese C57BL/6J DIO mice; oral once-a-day, group 5, FIG. 15): significant reduced food intake | mean cholesterol vs vehicle (rats; 28-day GLP rat toxicity study, FIG. 17): significant dose-dependent decreases in mean cholesterol | cholesterol levels (rats; all doses tested including 10, 30 and 50 mg/kg/day, 28-day): significantly reduced | CNS effect (functional observational battery) (rats; rat 28-day GLP toxicity study): no evidence of CNS effect

Cc1cc2ncc(-c3ccc(OC(C)(C)C)cc3)n2cc1-c1ccc(OC(C)C)cc1 [Polymorphic Form A of Compound 1, 3-(4-(tert-butoxy)phenyl)-6-(4-isopropoxyphenyl)-7-methylimidazo[1,2-a]pyridine]
weight increase (DVS) ([1]; 80% RH): ~ 0.28% | weight increase (DVS) ([1]; 95% RH): less than 0.5% | hygroscopicity ([1]; DVS): slightly hygroscopic | solubility ([2]; organic solvent or mixture, 1-4-dioxane): > 60 mg/mL | solubility ([2]; organic solvent or mixture, 1-Butanol): > 60 mg/mL | solubility ([2]; organic solvent or mixture, 2-MeTHF): > 56 mg/mL | solubility ([2]; organic solvent or mixture, 2 butanol): > 54 mg/mL | solubility ([2]; organic solvent or mixture, Acetone): > 56 mg/mL | solubility ([2]; organic solvent or mixture, Acetonitrile): 28 to 56 mg/mL (≈ 67.5 to 135 mM) | solubility ([2]; organic solvent or mixture, CPME): > 46 mg/mL | solubility ([2]; organic solvent or mixture, DCM): > 48 mg/mL | solubility ([2]; organic solvent or mixture, DMF): > 60 mg/mL | solubility ([2]; organic solvent or mixture, DMSO): 8 to 24 mg/mL (≈ 19.3 to 57.9 mM) | solubility ([2]; organic solvent or mixture, EtOH): > 48 mg/mL | solubility ([2]; organic solvent or mixture, IPAC): > 48 mg/mL | solubility ([2]; organic solvent or mixture, Isopropanol): > 52 mg/mL | solubility ([2]; organic solvent or mixture, MEK): > 52 mg/mL | solubility ([2]; organic solvent or mixture, MIBK): > 50 mg/mL | solubility ([2]; organic solvent or mixture, MTBE): 28 to 56 mg/mL (≈ 67.5 to 135 mM) | solubility ([2]; organic solvent or mixture, MeOH): > 48 mg/mL | solubility ([2]; organic solvent or mixture, THF): > 50 mg/mL | solubility ([2]; organic solvent or mixture, Toluene): > 46 mg/mL | solubility ([2]; organic solvent or mixture, n-Heptane): 2.8 to 9.3 mg/mL (≈ 6.75 to 22.4 mM) | solubility ([2]; organic solvent or mixture, n-Propanol): > 52 mg/mL | solubility ([2]; water, H2O): < 2.4 mg/mL | solubility at 24 h ([3]; FaSSIF, pH 6.73): 0.041 mg/mL (≈ 0.0989 mM) | solubility at 24 h ([3]; FeSSIF, pH 5.07): 0.224 mg/mL (≈ 0.54 mM) | solubility at 24 h ([3]; Simulated Gastric Fluid (SGF), pH 2.38): 0.532 mg/mL (≈ 1.28 mM) | solubility at 24 h ([3]; Water, pH 6.63): < 0.0125 mg/mL | Solid Form ([4]; H2O aw = 1): Form A | Solid Form ([4]; IPA/H2O aw = 0.2, 982/18): Form A | Solid Form ([4]; IPA/H2O aw = 0.4, 956/44): Form A + B | Solid Form ([4]; IPA/H2O aw = 0.6, 919/81): Form C | Solid Form ([4]; IPA/H2O aw = 0.8, 847/153): Form C | Solid Form ([5]; RT, 1,4 Dioxane:H2O (3:7)): Form A | Solid Form ([5]; RT, ACN): Form A | Solid Form ([5]; RT, ACN:H2O (4:6)): Form A | Solid Form ([5]; RT, DCM:n-Heptane (2:8)): Form A | Solid Form ([5]; RT, DMF:H2O (3:7)): Form B | Solid Form ([5]; RT, DMSO): Form A | Solid Form ([5]; RT, DMSO:H2O (4:6)): Form B | Solid Form ([5]; RT, EtOH:n-Heptane (2:8)): Form C | Solid Form ([5]; RT, H2O): Form A | Solid Form ([5]; RT, MEK:n-Heptane (2:8)): Form A | Solid Form ([5]; RT, MTBE): Form A | Solid Form ([5]; RT, MTBE:n-Heptane (3:7)): Form D | Solid Form ([5]; RT, THF:n-Heptane (2:8)): Form A | Solid Form ([5]; RT, n-Heptane): Form A | Solid Form ([6]; ACN): Form A | Solid Form ([6]; ACN:H2O (1:1)): Form E | Solid Form ([6]; DMSO): Amorphous | Solid Form ([6]; DSMO:H2O (1:1)): Amorphous | Solid Form ([6]; EtOH:H2O (1:1)): Form E | Solid Form ([6]; H2O): Form A | Solid Form ([6]; H2O:Acetone (7:3)): Form B | Solid Form ([6]; H2O:EtOH (6:4)): Form B, Low Crystalline | Solid Form ([6]; H2O:MeOH (7:3)): Form A | Solid Form ([6]; H2O:THF (7:3)): Form A | Solid Form ([6]; H2O:n-Propanol (6:4)): Form B, Peak Missing at 2- | Solid Form ([6]; MTBE): Form A | Solid Form ([6]; n-Heptane): Form A | Solid Form ([6]; n-Heptane:1,4-dioxane (19:1)): Gel | Solid Form ([6]; n-Heptane:Acetone (19:1)): Form A | Solid Form ([6]; n-Heptane:IPA (19:1)): Form B | Solid Form ([6]; n-Heptane:Toluene (19:1)): Form A | Solid Form ([7]; 2-MeTHF vapor): Gel | Solid Form ([7]; Acetone vapor): Form A | Solid Form ([7]; CPME vapor): Form D | Solid Form ([7]; EtOH vapor): Form F | Solid Form ([7]; IPA vapor): Form A | Solid Form ([7]; MEK vapor): Gel | Solid Form ([7]; MTBE vapor): Form A | Solid Form ([7]; Toluene vapor): Form A | Solid Form ([7]; n-Propanol vapor): Form A, Low Crystalline | excipient compatibility [8]: compatible with all excipients and blends in Table 22 | Appearance ([8]; open containers): White granular powder. | degraded at 672 h ([8]; open containers, read-out: Total Related Substances): 0.3%

Cc1c(C(=O)NN2CCCCC2)nn(-c2ccc(Cl)cc2Cl)c1-c1ccc(Cl)cc1 [Rimonabant]
cardiometabolic parameters (waist circumference, hemoglobin A1c, HDL, plasma cholesterol, triglycerides) (CB1R; clinical trials, obese people): improved multiple cardiometabolic parameters | weight loss (CB1R; clinical trials, obese people): weight loss in obese people | neuropsychiatric side-effects (CB1R; clinical use): withdrawn from clinical use due to its neuropsychiatric side-effects
